Data set [1] concerns endothelial cells. As to the kind of experiment: Uptake, retention and release of probucol by endothelial cells incubated with ^14 C-labeled diglutaryl probucol. The class given is cell-based. The method, then:
(§1) Nevertheless, after two subsequent incubations with LDL at 100 μg/ml for 24 hours each, 30-45% of the incorporated radioactivity was still associated with the cells. […] Thus, cells enriched in probucol, also released the antioxidant into the medium which may offer additional protection against oxidation. The rate of release of probucol from cells was not followed in these studies.

A short description of data set [2]: Hydrolysis to free probucol. The format is physicochemical. The text has this: A particularly preferred embodiment of the present invention is a class of dicarboxylic acid esters of probucol compounds which can be dissolved as sodium or potassium salts.
(§2) The product was purified by silicic acid column chromatography using increasing amounts of ether in hexane. The purified product gave a single spot on TLC (Rf 0.18) distinct from the parent compound (Rf 0.68). Upon alkaline hydrolysis, the compound yielded free probucol.

The test system of data set [3] is LDL incubated with mouse peritoneal macrophages. Kind of data set: Ability of macrophages to oxidize LDL after preincubation with probucol or diglutaryl probucol (TBARS). The class given is cell-based. Here is the method:
(§3) After 48 hours the cells were washed 3 times with 3 ml of Ham's F-10 and then subjected to incubation with ^125 I-LDL (1100 μg/ml) in 2 ml of Ham's F-10 for 20 hours. TBARS and subsequent macrophage degradation were determined. The results are averages from a triplicate determination from a representative set.
(§4) After several washings with Ham's F-10, the cells were then incubated with 200 μg of ^125 I-LDL in 2 ml. of Ham's F-10 for 24 hours. […] However, because the probucol was obviously not in solution and might remain absorbed to the cell surface even after washing, it is possible that residual probucol on the cell surface accounted for the apparent protection during the second incubation, i.e., probucol from the cell surface might transfer into the LDL during the first part of the second incubation.
(§5) Then the cells were thoroughly washed to remove any extracellular inhibitors. Specifically, they were washed three times with 3 ml of F-10 containing 10% fetal calf serum and then incubated with labeled LDL for an additional 24 hours. […] The values given are from a typical experiment from three or more separate experiments.

Data set [4] is described as follows: Solubility. The format is physicochemical. Here is the method:
as §2
More than 96% of the labeled derivative readily went into the solution as the sodium salt and when incubated with macrophages was effectively taken up by the cells.

For data set [5], the system named is LDL. As to the kind of experiment: Inhibition of oxidative modification of LDL, compound present during 24 hour incubation. The format is cell-based.
For data set [6], the system named is LDL incubated with mouse peritoneal macrophages. Kind of data set: Macrophage degradation of LDL previously incubated with pretreated macrophages (biological modification). The format is cell-based. Here is the method:
as §3, §4, §5

Data set [7] has as its system LDL incubated with endothelial cells (EC). Kind of data set: Macrophage degradation of LDL previously incubated with pretreated endothelial cells (biological modification). Particulars: Set A, 3 hours at 37° C., LDL 24 hours. The format is cell-based. The method, then: as §5
The test system is the same in data set [8]. As to the kind of experiment: Ability of endothelial cells (EC) to induce LDL oxidation after pretreatment (TBARS). The format is cell-based. Particulars: Set A, 3 hours at 37° C., LDL 24 hours. Here is the method:
as §5

Data set [9] concerns endothelial cells. As to the kind of experiment: Uptake of ^14 C-labeled water-soluble derivative by endothelial cells. The class given is cell-based. Particulars: 5 nmol added, 3 hours at 37° C., four individual cell incubations. Here is the method:
(§6) The cells were then washed three times with DME. […] The cells were dissolved in 1 ml of 0.01% Triton X-100 before the determination of radioactivity. Values for macrophages represent averages of duplicate determinations from one of two separate trials. Values for endothelial cells are from four individual cell incubations.

Data set [10] concerns LDL incubated with endothelial cells. As to the kind of experiment: Oxidation of LDL recovered from the medium of diglutaryl probucol-pretreated endothelial cells. The format is cell-based. As to conditions: endothelial cells preincubated with 25 nmol for 3 hours. The method, then: as §1
Data set [11] relates to macrophages. Kind of data set: Uptake of ^14 C-labeled water-soluble derivative by macrophages. The class given is cell-based, mouse. As to conditions: for Cell associated ^14 C-radioactivity: 3 hours at 37° C. Here is the method:
as §6

For data set [12], the system named is LDL. As to the kind of experiment: Subsequent copper modification of LDL recovered from pretreated endothelial cells. The class given is biochemical. The method, then: as §1
For data set [13], the system named is rat. As to conditions: given orally for some time before tying off a renal artery; cited from earlier work.
In data set [14] the test system is LDL receptor-deficient rabbits. As to conditions: cited from earlier work.
For data set [15] the following is noted: cited from earlier work.
In data set [16] the test system is endothelial cells. As to conditions: cited from earlier work.
The subject of data set [17] is LDL. As to conditions: cited from earlier work.
[18] abbreviates: Set B, macrophages pretreated with 10 μM, 3 hours at 37° C., LDL 24 hours.
[19] abbreviates: Set B, macrophages pretreated with 20 μM, 3 hours at 37° C., LDL 24 hours.
Setting [20] is: Set B, macrophages pretreated with 30 μM, 3 hours at 37° C., LDL 24 hours.
The mark [21] stands for this setting: macrophages pretreated with 500 nmol/ml probucol in ethanol, 48 hours, then LDL.
Setting [22] is: EC pretreated with 100 μM (probucol in ethanol).

Molecules are shown by their SMILES. A value given as a limit tells only on which side of the number the result lay.

The term inhibition denotes the change of the read-out against control, counted positive when it falls. Lower therefore signals a response near the control.

Turning to `CC(C)(Sc1cc(C(C)(C)C)c(OC(=O)CCCC(=O)O)c(C(C)(C)C)c1)Sc1cc(C(C)(C)C)c(OC(=O)CCCC(=O)O)c(C(C)(C)C)c1` [diglutaryl probucol, probucol diglutarate], in data set [1] (50-200 nmol, after two subsequent incubations with LDL at 100 μg/ml for 24 hours each), the “Incorporated radioactivity still associated with the cells” value is given as 30-45%. The “Release of free probucol into the medium” value in data set [1] (endothelial cells incubated with 50-200 nmol, 24 hour incubation after washings) is on record as “considerable release of free probucol into the medium”. Moreover, the “Hydrolysis in the course of incubation” value in data set [2] (24 hour incubation, medium) is “almost completely hydrolyzed”. Also, the “Hydrolysis in aqueous solution” value in [2] (sodium salt in aqueous solution) was “slow hydrolysis”. Besides, the TBARS is 5.3 nmol/mg protein in [3] (setting [18]); 4.1 nmol/mg protein in data set [3] (setting [19]); 3.3 nmol/mg protein in data set [3] (setting [20]); 12.1 nmol/mg protein in data set [8] (EC pretreated with 25 μM); 6.5 nmol/mg protein in data set [8] (EC pretreated with 50 μM). Besides, in [3] (concentrations as low as 10 μM, 3 hours pretreatment), the “Inhibition of LDL modification by pretreated cells” value is “inhibited the modification completely”. Moreover, the “Solubility in organic solvents” value in [4] (acid form) is “soluble in organic solvents”. The “Labeled derivative going into solution” value in [4] (as the sodium salt) is on record as “More than 96%”. Also, in data set [4] (sodium bicarbonate solution, after removal of organic solvent), the “Solubility in sodium bicarbonate solution” value is “can be dissolved in sodium bicarbonate solution”. The same compound had an inhibition at 2.5 µM in data set [5] greater than 50%. Besides, the Macrophage degradation in data set [6] (setting [18]) was 2.2 μg/5 h per mg cell protein; in data set [6] (setting [19]) it was 1.6 μg/5 h per mg cell protein; in data set [6] (setting [20]), 1.4 μg/5 h per mg cell protein; in data set [7] (EC pretreated with 25 μM), 1.5 μg/5 h per mg cell protein; in data set [7] (EC pretreated with 50 μM) it was 1.3 μg/5 h per mg cell protein. The “Cell associated ^14 C-radioactivity” value was determined as 1.9 ± 0.14 nmol in [9]; 2.5 nmol in data set [11] (macrophages, 5 nmol added); 3.7 nmol in data set [11] (macrophages, 10 nmol added); 4.2 nmol in [11] (macrophages, 15 nmol added); 5.2 nmol in data set [11] (macrophages, 20 nmol added); 6.5 nmol in [11] (macrophages, 25 nmol added). For the same compound, the “Oxidation of LDL recovered from the medium” value in data set [10] was “absence of oxidation”. Also, the “Cell associated radioactivity in the form of the precursor, probucol diglutarate” value in data set [11] (at 60 minutes) is on record as “about half”. In data set [11] (macrophages, after 2 hours), the “Added radioactivity associated with the cells” value is 25-30%. Moreover, the “Amount associated with the cells” value in data set [11] (macrophages, after 2 hours) was 2.5-6.5 nmol of probucol/~40 μg of cell protein. Further, the “Modification of recovered LDL upon subsequent incubation with 5 μM copper” value is “readily modified” in [12] (endothelial cells preincubated with 25 nmol for 3 hours) and “resistant to modification” in data set [12] (endothelial cells preincubated with 50-200 nmol).

As to `CC(C)(Sc1cc(C(C)(C)C)c(O)c(C(C)(C)C)c1)Sc1cc(C(C)(C)C)c(O)c(C(C)(C)C)c1` [probucol, 4,4'-(isopropylidenedithio) bis(2,6-di-tert-butylphenol), reference compound], the “Probucol released into the medium” value in [1] (24 hour incubation with LDL, 50-200 nmol diglutaryl probucol) is listed as “about 7 nmol”. In addition, in [1] (endothelial cells, 50-200 nmol diglutaryl probucol), the “Probucol incorporated into the cells” value was “more than 15 nmol”. Also, the “LDL modification by cells as compared to control cells not pretreated” value in data set [3] (cells preincubated with probucol 500 nmol/ml) is on record as “modified LDL poorly as compared to control cells”. In addition, the TBARS in data set [3] (setting [21]) is recorded as 11.2 nmol/mg protein; in data set [8] (setting [22]), 42.5 nmol/mg protein. Also, the “Post-perfusion injury in the kidney” value in data set [13] was “can limit the post-perfusion injury in the kidney”. In addition, in data set [4] (500 nmol/ml added in ethanol, medium grossly milky), the Solubility in medium entry is “very limited solubility”. Moreover, the Macrophage degradation is listed as 2.1 μg/5 h per mg cell protein in data set [6] (setting [21]) and 6.4 μg/5 h per mg cell protein in data set [7] (setting [22]). Further, the Progression of atherosclerosis result in data set [14] is “slow the progression of atherosclerosis”. For the same compound, the Solubility in lipid entry in data set [15] is “highly lipid soluble”. In addition, the Solubility in water result in data set [15] (water) is “almost insoluble in water”. Besides, the “Incorporation into endothelial cells” value in data set [16] (50 μM probucol, 24 h) is “less than 1 μg of probucol/10^6 cells”. The “Rate of entrance into cells in culture” value in data set [16] (cells in culture) is listed as “slow”. For the same compound, in data set [17], the “Oxidative modification of LDL” value is recorded as “block oxidative modification of LDL”.
